Data taken from patent US20170266266A1, “Functions of 55 Newfound Proteins and Their Medicinal Application in the Treatment and Prevention of Disease” (priority 2012, published 2017).
Where two headings read alike, the source gives them in different places.

Legend:
[1] = test system: fatty streak lesions in rabbits on high fat diet; assay type: in vivo, rabbit; settings: for TC/HDL-C: Atorvastatin group
Protocol: The rabbits were fasted for 12 hrs before the beginning of the experiments. Blood parameters were then tested as the normal level of plasma indicators. A total of 52 rabbits were purchased at different time, four of them were used as normal control and fed with normal diet the whole time during the experiments. […] Plasma concentrations of total cholesterol (TC), […] (TG), low density lipoprotein-cholesterol (LDL-C), very low density lipoprotein-cholesterol (VLDL-C), high density lipoprotein-cholesterol (HDL-C) were quantified by enzymatic assays. TC/HDL-C or ([…] ratios were then determined. Animals were sacrificed under deep anesthesia with sodium pentobarbital 25 mg/kg IV. The entire aorta from the aortic valve to the iliac bifurcation was removed from each rabbit and opened longitudinally. […] Atheromatous lesions were measured without staining Atheromatous lesions were manually traced in the photographs, and the percent area of the atheromatous lesions was calculated. Sample of aorta from animals were homogenated. And the content of lipid was determined.

[2] = test system: atherosclerosis in ApoE knock out mouse on high fat diet
Description: 10 ApoE ko mice were fed with regular chow diet and used as negative control group. 50 ApoE ko mice were fed with high fat diet (35% kcal fat, 1% cholesterol) for 8 weeks, and then the plasma samples were collected for lipid profile measurement before the treatment. 50 ApoE ko mice were assigned into 5 groups based on the fasting overnight plasma TC and HDL level.
5.2. Study Timeline: • 23 Dec. 2011: 60 ApoE mice arrived at chempartner and were housed in the animal facility in the building #3 for the acclimation. • 6 Jan. 2012: Measured the body weight for each mouse. 50 mice were fed with high fat diet and 10 mice were fed with normal chow diet. • 2 Mar. 2012: All mice were fasted over night and plasma samples (about 300 ul whole blood) were collected for lipid profile measurement before treatment with RAAS antibody. • 19 Mar. 2012 to 6 Apr. […] 2012: All mice were fasted over night and plasma sample for each mouse (about 300 ul whole blood) was collected for lipid profile measurement after 16 weeks treatment. Blood glucose was also measured for each mouse. • 9 Jul. 2012: The study was terminated after 16 weeks treatment. Measure BW, sacrificed each mouse, dissected the aorta, heart, liver and kidney and fixed them in 4% PFA.
Antibody products were administrated by intraperitoneal injection every two days (Monday, Wednesday, and Friday). and the positive compound was administered by p.o every day.
The body weight was weighed weekly during the period of treatment. The fasting overnight blood glucose was measured at the end of study by Roche glucometer.
About 300 ul of blood sample was collected from the orbital vein for each mouse and centrifuged at 7000 rpm for 5 min at 4E and the plasma lipid profile was measured by Roche Modular automatic biochemistry analyzer in DaAn Medical Laboratory
After RAAS antibody products treatment for 16 weeks, all mice were sacrificed. Measured body weight and collected blood sample for each mouse. Weighed liver weight and saved a tiny piece of liver into 4% paraformaldehyde (PFA) fixation solution for further analysis. At same time, take the photos with heart, lung, aortas and two kidneys.
5.8. Oil Red Staining Procedure: • 1. Sacrificed the mice and dissected the heart, aorta, and arteries under dissecting microscope. • 2. Briefly wash with PBS and fixed in 4% paraformaldehyde (PFA) overnight at 4[…]. • 3. Rinse with 60% isopropanol • 4. Stain with freshly prepared Oil Red O working solution 10 min. • 1). Oil red O stock stain: 0.5% powder in isopropanol • 2). Working solution: dilute with distilled water (3:2) and filter with membrane (0.22 um) • 5. Rinse with 60% isopropanol 10 second. • 6. Dispel the adherent bit fat outside of the aorta under the dissecting microscope. • 7. Cut the vascular wall gently and keep the integrated arteries using the micro scissors. • 8. Unfold the vascular inner wall with the cover slides and fix it by water sealing tablet.
Scanning the glasses slides with the Aperio ScanScope system and analyze with the image proplus software to measure the area of atherosclerotic plaque lesion. The results were expressed as the percentage of the total aortic surface area covered by lesions. The operation procedure of software was briefly described as follow: Converted the sys version photos into JPG version, then calibrated it and subsequently selected the red regions and then calculate the total area automatically by image proplus software.
The results were expressed as the Mean±SEM and statistically evaluated by student's t-test.

[3] = test system: Influenza A/Weiss/43 H1N1 in MDCK cells; experiment: microbe, parasite or virus in culture; assay type: cell-based
Influenza H1N1 A/WSN/33 = assay type: in vivo, BALB/c mice
3T3-L1 adipocytes = experiment: Glucose uptake assay; assay type: cell-based
Protocol: Study Protocol • 1. 3T3-L1 fibroblasts were cultured in DMEM containing 25 mM glucose and 10% bovine calf serum at 37 °C with 5% CO2. • 2. 3T3-L1 fibroblasts were differentiated into adipocytes 2 days post confluent with the same DMEM medium containing 1 ug/ml insulin (Sigma-Aldrich), 1 uM dexamethasone (Sigma-Aldrich), and 0.5 mM isobutyl-1-methylxanthine (Sigma-Aldrich). • 3. Media were replaced with DMEM containing 10% FBS and 1 ug/ml insulin and culture 2 days. • 4. Seed 1×10^5 3T3-L1 adipocytes to 96 wells cell culture plate (DMEM, 10% FBS, 1% PS, 1 ug/ml insulin) • 5. Before experiments, adipocytes were incubated in serum free medium for starvation overnight. • 6. Dilute each sample 100 folds (2 ul primal solution to 198 ul buffer) in corresponding buffer. Add 2 ul of sample primal solution, 100 folds diluted solution and buffer to 198 ul KRPH buffer. • 7. 3T3-L1 adipocytes were washed with KRPH buffer (5 mM Na2HPO4, 20 mM HEPES, pH 7.4, 1 mM MgSO4.1 mM CaCl2, 136 mM NaCl, […], and 1% BSA) three times, Add 90 ul/well KRPH containing human insulin and samples to assay plate, incubate for 30 min at 37[…] and 5% CO2. • 8. Add 10 ul KRPH containing 0.25 uCi 1-[3H]-2-deoxyglucose/well and 50 umol/l 2-deoxyglucose and Incubate 10 min in 95% air/5% CO2 at 37[…] • 9. The transport was stopped by rinsing the cells with cold PBS containing 10 mM glucose for three times. • 10. The adipocytes were lysed in 50 ul 10% KOH for 5 min • 11. Then the aliquots were subjected to scintillation counting using TriCap.

[4] = test system: atherosclerosis in New Zealand white rabbit on high fat diet; settings: rabbit, in vivo
Protocol: New Zealand rabbits were adopted in this animal study and divided into 5 groups. They were high dose, medium dose and low dose of treatment, positive and vehicle control. The treatment groups were given APOAI via auricular vein once a week. […] Positive controls were given Liptor daily by p.o. with a dose of 0.45 mg/kg body weight. […] The study duration was 19 weeks. At the end of study, all animals were sacrificed. […] Lipid content was examined in liver and aorta. And liver index was also determined.
The body weight was between 1.8-2.0 kg. The animals were quarantined for 5-10 days with normal diet before study.
Animals were randomly divided into 5 groups including vehicle control, high dose, medium dose, low dose and positive control group. Ten to 14 rabbits were in one group. Each rabbit was fed with 30 gram of high fat diet followed by 120 gram of normal diet with free access to water.
The frequency of dosing was once a week. Dose was 80, 40, 20 mg/kg body weight respectively. Drug was given by intravenous injection via auricular vein with the volume of 5 mL.
5.1 body weight: body weight of each rabbit was determined once a week.
Resulted blood samples were kept still for 2 hours and then spin with 4,000 rpm for 10 min.
Abdomen cavity was opened. Whole blood was taken from heart. Heart was harvested along with 7 cm of aorta.
The aorta was dissected for 0.5 cm from aortic arch, split longitudinally and then kept in cryo-preservation tube for later lipid analysis. One piece of this sample was fixed in formalin for further pathological analysis.
The weight of liver was determined immediately. Two pieces of specimen were cut from hepatic lobe.
Resulted blood samples were kept still for 2 hours.
The aorta was dissected and opened for 7.5 cm from aortic arch longitudinally. Pictures were taken and atherosclerosis changing was analyzed.

[5] = H1N1 + Oseltamivir, dose printed 0.2/0.4 ml/mouse

Compound: CC(C)c1c(C(=O)Nc2ccccc2)c(-c2ccccc2)c(-c2ccc(F)cc2)n1CC[C@@H](O)C[C@@H](O)CC(=O)O [Atorvastatin, reference compound]
- lipid con. at dissected aorta ([1]; Atorvastatin group (n = 4), triglyceride content): 0.0274 ± 0.006 µmol/mg
- TC/HDL-C ([1]; Wk 0 (start of high fat diet)): 1.844
- TC/HDL-C ([1]; Wk 10 (before Atorvastatin administration)): 4.511
- TC/HDL-C ([1]; Wk 18 (end of Atorvastatin administration)): 6.811
- liver weight ([2]; 40 mg/kg, 16 weeks treatment): significantly reduced
- TC net change ([2]; 16 week treatment): not reduce the TC net change
- net change of LDL ([2]; 16 week treatment): no significant difference in net change of LDL
- plaque area and percentage of plaque area in total inner vascular area ([2]; 16 weeks): mild trend to decrease percentage of plaque area
- plaque lesion area of aorta ([2]; 16 weeks treatment, atorvastatin 40 mg/kg): did not affect the plaque lesion area of aorta

Compound: CCOC(=O)C1=C[C@@H](OC(CC)CC)[C@H](NC(C)=O)[C@@H](N)C1 [Osletamivir, Oseltamivir]
- EC50 ([3]; A/Weiss/43 H1N1, MDCK cells, read-out: EC50): 890 nM
- EC50 ([3]; Influenza A/Weiss/43 H1N1 in MDCK cells, MTT after 72 hours, positive control, read-out: anti H1N1 EC50s): 890 nM
- mice survived to the end of experiment (Influenza H1N1 A/WSN/33; 1 mg/kg orally twice daily for 8 days): 4 out of 5
- Mean day to death ± S.D. (Influenza H1N1 A/WSN/33; [5]): >14 ± 0.0 days
- Survivor/total (Influenza H1N1 A/WSN/33; [5]): 4/4
- body weight drop (Influenza H1N1 A/WSN/33; mouse, in vivo): < 15%

Compound: insulin
- EC50 (3T3-L1 adipocytes; dose response AFOD 1 / AFOD RAAS 109, run N1): 7.08 nM
- EC50 (3T3-L1 adipocytes; dose response AFOD 1 / AFOD RAAS 109, run N2): 8.64 nM
- EC50 (3T3-L1 adipocytes; dose response AFOD RAAS 107 / AFOD KH, run N1): 3.09 nM
- EC50 (3T3-L1 adipocytes; dose response AFOD RAAS 107 / AFOD KH, run N2): 10.2 nM
- EC50 (3T3-L1 adipocytes; dose response AFOD RAAS 107 / AFOD KH, run N3): 4.17 nM

Compound: CC(C)c1c(C(=O)Nc2ccccc2)c(-c2ccccc2)c(-c2ccc(F)cc2)n1CC[C@@H](O)C[C@@H](O)CC(=O)O [Liptor, reference compound]
- calcification, pathological examination [4]: one animal with calcification
